In patent publication US7585861B2, “HIV inhibiting 1,2,4-triazines” (Janssen Pharmaceutica, N.V., priority 2003, dated 2009):

Key:
Type in all cases: cell-based
mock-infected MT-4 cells [1] = experiment: Test B: cytotoxicity in mock-infected MT-4 cells engineered with GFP under a constitutional promoter
Method: An […] T4-cell line, MT-4, which was previously shown (Koyanagi et al., Int. J. Cancer, 36, 445-451, 1985) to be highly susceptible to and permissive for HIV infection, served as the target cell line. In these cells, engineered with GFP (and an HIV-specific promotor), ongoing HIV-infection was measured fluorometrically. Cytotoxicity is measured in the same cells, but engineered with GFP under a constitutional promoter. The infection (or inhibition thereof) of HIV infected cells and the flourescence of mock-infected cells is assessed by the fluorescent GFP signal generated by the two above mentioned cell lines.

HIV = experiment: Test A: inhibition of the HIV-induced cytopathic effect in MT-4 cells (MTT); conditions: Test A; MT-4 cells, MTT; pIC50 = −log IC50, dose achieving 50% protection
Method: (§1) A rapid, sensitive and automated assay procedure was used for the in vitro evaluation of anti-HIV agents. An […] T4-cell line, MT-4, which was previously shown (Koyanagi et al., Int. J. Cancer, 36, 445-451, 1985) to be highly susceptible to and permissive for HIV infection, served as the target cell line. Inhibition of the HIV-induced cytopathic effect was used as the end point. The viability of both HIV- and mock-infected cells was assessed spectrophotometrically via the in situ reduction of 3-(4,5-dimethylthiazol-2-yl)-2,5-diphenyltetrazolium bromide (MTT). […] The percent protection achieved by the compound in HTV-infected cells was calculated by the following formula:
(§2) [formula] whereby (ODT)HIV is the optical density measured with a given concentration of the test compound in HIV-infected cells; (ODC)HIV is the optical density measured for the control unteated HIV-infected cells; (ODC)MOCK is the optical density measured for the control untreated mock-infected cells; all optical density values were determined at 540 nm. […] The ratio of CC50 to IC50 was defined as the selectivity index (SI).

mock-infected MT-4 cells [2] = experiment: Test A: cytotoxicity in mock-infected MT-4 cells (MTT)
Method: as §1, §2

[3] = Test A, mock-infected MT-4 cells, MTT, 50% cytotoxic concentration (CC50 in M)

Row | pIC50 (M) (HIV) | SMILES | PCC50 (mock-infected MT-4 cells [1]) | PCC50 (mock-infected MT-4 cells [2]) | PCC50 (mock-infected MT-4 cells [2]; [3])
1 | 9.0 | Cc1cc(CCC#N)cc(C)c1Nc1nc(Nc2ccc(C#N)cc2)nnc1C [Compound 2] |  | <4.0 | 
2 | 8.7 | Cc1cc(C#N)cc(C)c1Nc1nc(Nc2ccc(C#N)cc2)nnc1C [Compound 5] |  | <4.0 | 
3 | 9.2 | COc1cc(C)c(Nc2nc(Nc3ccc(C#N)cc3)nnc2C)c(C)c1 [Compound 11] |  | 5.5 | 
4 | 8.2 | Cc1cc(/C=C/C#N)cc(C)c1Nc1nc(Nc2ccc(C#N)cc2)nnc1C [Compound 13] |  | <4.0 | 
5 | 8.8 | COc1cc(C)c(Nc2cnnc(Nc3ccc(C#N)cc3)n2)c(C)c1 [Compound 14] |  | <4.0 | 
6 | 8.8 | Cc1cc(Br)cc(C)c1Nc1cnnc(Nc2ccc(C#N)cc2)n1 [Compound 15] |  | <4.0 | 
7 | 8.7 | Cc1cc(Br)cc(C)c1Nc1nc(Nc2ccc(C#N)cc2)nnc1C [Compound 16] |  | 4.2 | 
8 | 8.0 | Cc1cc(C(C)(C)C)cc(C)c1Nc1cnnc(Nc2ccc(C#N)cc2)n1 [Compound 17] |  | <4.0 | 
9 | 8.1 | Cc1cc(C(C)(C)C)cc(C)c1Nc1nc(Nc2ccc(C#N)cc2)nnc1C [Compound 18] |  | <4.0 | 
10 | 9.0 | Cc1cc(/C=C\C#N)cc(C)c1Nc1nc(Nc2ccc(C#N)cc2)nnc1C [Compound 19] |  | 4.6 | 
11 | 7.1 | Cc1cc(/C=C/C(=O)N(C)C)cc(C)c1Nc1nc(Nc2ccc(C#N)cc2)nnc1C [Compound 22] |  | <4.6 | 
12 | 8.9 | COc1cc(C)cc(C)c1Nc1nc(Nc2ccc(C#N)cc2)nnc1C [Compound 23] |  | 6.4 | 
13 | 8.6 | COc1cc(OC)c(Nc2nc(Nc3ccc(C#N)cc3)nnc2C)c(OC)c1 [Compound 25] |  | 4.4 | 
14 | 8.3 | Cc1cc(C)c(Nc2nc(Nc3ccc(C#N)cc3)nnc2C)c(CC#N)c1 [Compound 27] |  | <4.0 | 
15 | 7.5 | Cc1cc(C(=O)N(C)C)cc(C)c1Nc1nc(Nc2ccc(C#N)cc2)nnc1C [Compound 31] |  | <4.0 | 
16 | 8.6 | Cc1nnc(Nc2ccc(C#N)cc2)nc1Nc1c(Cl)cc(/C=C/C#N)cc1Cl [Compound 34] |  | 5.0 | 
17 | 8.2 | CCOc1cc(C)c(Nc2nc(Nc3ccc(C#N)cc3)nnc2C)c(C)c1 [Compound 35] |  | <4.6 | 
18 | 8.9 | Cc1cc(OCC#N)cc(C)c1Nc1nc(Nc2ccc(C#N)cc2)nnc1C [Compound 38] |  | 4.7 | 
19 | 7.2 | Cc1cc(/C=C/C(=O)N2CCCC2)cc(C)c1Nc1nc(Nc2ccc(C#N)cc2)nnc1C [Compound 39] |  | <4.0 | 
20 | 9.1 | CC(C#N)=Cc1cc(C)c(Nc2nc(Nc3ccc(C#N)cc3)nnc2C)c(C)c1 [Compound 42] |  | 4.8 | 

More lines, now with the values behind:

Row | SMILES | pIC50 (M) (HIV) | PCC50 (mock-infected MT-4 cells [1]) | PCC50 (mock-infected MT-4 cells [2]) | PCC50 (mock-infected MT-4 cells [2]; [3])
21 | N#CC=Cc1cc(Br)c(Nc2nnc(Cl)c(Nc3ccc(C#N)cc3)n2)c(Br)c1 (mixture of isomers) [Compound 78] |  | 5.1 |  | 
22 | Cc1cc(C)c(Nc2cnnc(Nc3ccc(C#N)cc3)n2)c(C)c1 [Compound 7] | 9.3 |  |  | 5.5
23 | Cc1cc(/C=C/C#N)cc(C)c1Nc1cnnc(Nc2ccc(C#N)cc2)n1 [Compound 8] | 7.3 |  | <4.0 | 
24 | Cc1cc(CCC#N)cc(C)c1Nc1cnnc(Nc2ccc(C#N)cc2)n1 [Compound 9] | 7.8 |  | <4.0 | 
25 | N#Cc1ccc(Nc2nncc(Nc3c(Cl)cc(C#N)cc3Cl)n2)cc1 [Compound 10] | 7.6 |  |  | <4.5
26 | Cc1cc(C)c(Nc2nc(Nc3ccc(C#N)cc3)nnc2C)c(C)c1 [Compound 12] | 8.9 |  |  | 
27 | Cc1cc(CC#N)cc(C)c1Nc1nc(Nc2ccc(C#N)cc2)nnc1C [Compound 20] | 8.6 |  | <4.6 | 
28 | Cc1cc(CC#N)cc(C)c1Nc1cnnc(Nc2ccc(C#N)cc2)n1 [Compound 24] | 8.8 |  | <4.6 | 
29 | COc1cc(/C=C/C#N)cc(OC)c1Nc1nc(Nc2ccc(C#N)cc2)nnc1C [Compound 33] | 8.6 |  | 5.4 | 
30 | CNC(=O)c1cc(C)c(Nc2cnnc(Nc3ccc(C#N)cc3)n2)c(C)c1 [Compound 37] | 7.0 |  | 4.3 | 
31 | COc1cc(CCC#N)cc(OC)c1Nc1nc(Nc2ccc(C#N)cc2)nnc1C [Compound 40] | 8.6 |  | 5.0 | 
32 | Cc1cc(OCC#N)cc(C)c1Nc1cnnc(Nc2ccc(C#N)cc2)n1 [Compound 41] | 7.6 |  | <4.6 | 
33 | CCOc1cc(C)c(Nc2cnnc(Nc3ccc(C#N)cc3)n2)c(C)c1 [Compound 43] | 8.1 |  | <4.6 | 
34 | Cc1cc(C)c(Nc2nnc(Cl)c(Nc3ccc(C#N)cc3)n2)c(C)c1 [Compound 45] | 7.6 |  | <4.6 | 
35 | Cc1cc(C)c(Sc2nc(Nc3ccc(C#N)cc3)nnc2Cl)c(C)c1 [Compound 46] | 7.9 |  |  | <4.6
36 | Cc1cc(/C=C/C(=O)N2CCOCC2)cc(C)c1Oc1nc(Nc2ccc(C#N)cc2)nnc1C [Compound 47] | 8.1 |  | <4.6 | 

Row | SMILES | pIC50 (M) (HIV) | PCC50 (mock-infected MT-4 cells [1]) | PCC50 (mock-infected MT-4 cells [2]) | PCC50 (mock-infected MT-4 cells [2]; [3])
37 | Cc1cc(/C=C/C(=O)N(C)C)cc(C)c1Oc1nc(Nc2ccc(C#N)cc2)nnc1C [Compound 50] |  | 4.7 |  | 
38 | CCNC(=O)c1cc(C)c(Nc2cnnc(Nc3ccc(C#N)cc3)n2)c(C)c1 [Compound 51] |  | 5.1 |  | 
39 | Cc1cc(C(=O)N(C)C)cc(C)c1Nc1cnnc(Nc2ccc(C#N)cc2)n1 [Compound 52] |  | <4.6 |  | 
40 | Cc1cc(C=CC#N)cc(C)c1Nc1nnc(Cl)c(Nc2ccc(C#N)cc2)n1 [Compound 53] |  | 4.9 |  | 
41 | Cc1cc(/C=C/C#N)cc(C)c1Nc1nc(Nc2ccc(C#N)cc2)nnc1Cl [Compound 54] |  | 4.9 |  | 
42 | CNC(=O)/C=C/c1cc(C)c(Oc2nc(Nc3ccc(C#N)cc3)nnc2C)c(C)c1 [Compound 56] |  | 4.8 |  | 
43 | CCN(C)C(=O)/C=C/c1cc(C)c(Oc2nc(Nc3ccc(C#N)cc3)nnc2C)c(C)c1 [Compound 57] |  | 4.7 |  | 
44 | COc1cc(/C=C/C#N)cc(C)c1Nc1nc(Nc2ccc(C#N)cc2)nnc1C [Compound 60] |  | 6.0 |  | 
45 | C/C(=C\C#N)c1cc(Cl)c(Nc2nc(Nc3ccc(C#N)cc3)nnc2C)c(Cl)c1 [Compound 61] |  | 5.4 |  | 
46 | N#Cc1ccc(Nc2cnnc(Nc3c(F)cc(I)cc3F)n2)cc1 [Compound 63] |  | 4.9 |  | 
47 | COc1cc(C)c(Nc2nnc(Cl)c(Nc3ccc(C#N)cc3)n2)c(C)c1 [Compound 64] |  | 4.7 |  | 
48 | Cc1cc(/C=C/C#N)cc(Cl)c1Nc1nc(Nc2ccc(C#N)cc2)nnc1C [Compound 65] |  | 5.3 |  | 
49 | COc1cc(C(C)=CC#N)cc(C)c1Nc1nc(Nc2ccc(C#N)cc2)nnc1C [Compound 66] |  | 5.7 |  | 
50 | COc1cc(/C(C)=C/C#N)cc(OC)c1Nc1nc(Nc2ccc(C#N)cc2)nnc1C [Compound 67] |  | 4.9 |  | 
51 | COc1cc(/C(C)=C/C#N)cc(Cl)c1Nc1nc(Nc2ccc(C#N)cc2)nnc1C [Compound 68] |  | 5.2 |  | 
52 | C/C(=C\C#N)c1cc(C)c(Nc2nc(Nc3ccc(C#N)cc3)nnc2C)c(Cl)c1 [Compound 69] |  | 5.7 |  | 
